Article PMC6450877, “A revised biosynthetic pathway for the cofactor F420 in prokaryotes” (Nature Communications, 2019)

How the values were obtained:
[1] = target: T1, Mtb-FbiA (Mycobacterium tuberculosis, UniProt P9WP81)
[2] = target: T2, Mtb-FbiD (Mycobacterium tuberculosis, UniProt P9WP83)
[3] = target: T3, Mj-CofC (Methanocaldococcus jannaschii, UniProt Q58297); assay: coupled HPLC-MS assay with Mtb-FbiA; assay type: biochemical; conditions: Mtb-FbiA present, 1 mM PEP, 2 mM GTP, 0.1 mM Fo, 5 mM MgCl2, pH 7.5, 37 °C
T3 construct: synthetic ORF in pYUB28b, expressed in E. coli, Ni-NTA and SEC
T3 sequence (Q58297 1-224): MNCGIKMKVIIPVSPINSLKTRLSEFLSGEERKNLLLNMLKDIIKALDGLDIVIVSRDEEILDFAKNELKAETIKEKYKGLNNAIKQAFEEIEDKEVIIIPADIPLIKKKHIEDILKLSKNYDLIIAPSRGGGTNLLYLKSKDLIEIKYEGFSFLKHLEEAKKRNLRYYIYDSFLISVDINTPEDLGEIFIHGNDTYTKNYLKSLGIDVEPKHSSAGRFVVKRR

[4] = target: T2, Mtb-FbiD; remark: listed apart in the source
[5] = target: T4, Mtb-FbiB (Mycobacterium tuberculosis, UniProt P9WP79)
[6] = target: T1, Mtb-FbiA; remark: listed apart in the source
[7] = target: T4, Mtb-FbiB; remark: listed apart in the source

T2 sequence (P9WP83 whole entry): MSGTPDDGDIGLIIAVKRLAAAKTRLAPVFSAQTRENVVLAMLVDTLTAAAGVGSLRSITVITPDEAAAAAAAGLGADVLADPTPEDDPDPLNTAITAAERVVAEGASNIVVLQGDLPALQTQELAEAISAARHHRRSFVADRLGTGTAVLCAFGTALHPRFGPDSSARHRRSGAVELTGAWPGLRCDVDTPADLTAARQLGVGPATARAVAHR
T1 sequence (P9WP81 whole entry): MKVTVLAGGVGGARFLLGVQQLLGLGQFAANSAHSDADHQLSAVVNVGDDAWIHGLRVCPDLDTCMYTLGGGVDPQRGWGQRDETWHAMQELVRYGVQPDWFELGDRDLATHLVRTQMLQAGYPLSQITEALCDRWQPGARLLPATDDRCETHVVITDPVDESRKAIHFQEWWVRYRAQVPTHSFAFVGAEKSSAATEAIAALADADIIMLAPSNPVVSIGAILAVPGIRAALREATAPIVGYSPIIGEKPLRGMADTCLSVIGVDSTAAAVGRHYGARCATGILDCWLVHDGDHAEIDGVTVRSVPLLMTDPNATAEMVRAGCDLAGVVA
T4 sequence (P9WP79 whole entry): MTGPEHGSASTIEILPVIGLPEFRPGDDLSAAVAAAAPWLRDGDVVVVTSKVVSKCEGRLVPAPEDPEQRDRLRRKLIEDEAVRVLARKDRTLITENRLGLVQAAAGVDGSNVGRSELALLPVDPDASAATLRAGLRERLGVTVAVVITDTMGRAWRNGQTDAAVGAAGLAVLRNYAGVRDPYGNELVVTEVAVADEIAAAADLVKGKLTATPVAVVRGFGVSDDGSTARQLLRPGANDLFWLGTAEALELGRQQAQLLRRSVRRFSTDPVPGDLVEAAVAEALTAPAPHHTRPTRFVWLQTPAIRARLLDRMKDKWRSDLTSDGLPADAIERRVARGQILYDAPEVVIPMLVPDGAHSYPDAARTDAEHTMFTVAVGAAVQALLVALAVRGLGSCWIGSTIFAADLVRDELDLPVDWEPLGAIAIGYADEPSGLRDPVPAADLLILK

With `O=c1nc2n(C[C@H](O)[C@H](O)[C@H](O)CO)c3cc(O)ccc3cc-2c(=O)[nH]1` [Fo, 7,8-didemethyl-8-hydroxy-5-deazariboflavin] the “coupled HPLC-MS assay with FbiD or CofC” value [1] was “when these enzymes were incubated with PEP, GTP (or ATP), and Fo”.
In the case of `C=C(OP(=O)(O)O)C(=O)O` [PEP, phosphoenolpyruvate], the “X-ray crystal structure, soak, 2.18 Å” value [2] is reported as “We also soaked PEP into pre-formed FbiD crystals to obtain an FbiD-PEP complex” and the “coupled HPLC-MS assay with Mtb-FbiA” value [3] is reported as “both Mtb-FbiD and CofC from Methanocaldococcus jannaschii (Mj-CofC) enzymes use PEP to produce dehydro-F420-0”.
With `Nc1nc2c(ncn2[C@@H]2O[C@H](COP(=O)(O)OP(=O)(O)OP(=O)(O)O)[C@@H](O)[C@H]2O)c(=O)[nH]1` [GTP, guanosine-5ʹ-triphosphate] the “coupled HPLC-MS assay with FbiA” value [4] was “Mtb-FbiD exclusively utilizes GTP to produce dehydro-F420-0”.
`C=C(OP(=O)(O)OC[C@@H](O)[C@@H](O)[C@@H](O)Cn1c2nc(=O)[nH]c(=O)c-2cc2ccc(O)cc21)C(=O)O` [dehydro-F420-0] was tested, and the “coupled FbiD:FbiA:FbiB assay with Fre/FMNH2, MS/MS” value [5] was “dehydro-F420-0 is a bona fide metabolic intermediate that can be converted to mature F420 by FbiB” and the “coupled HPLC assay, MS/MS” value [6] was “The discovery of dehydro-F420-0 as the product of FbiD:FbiA activity in mycobacteria”.
In the case of `N[C@@H](CCC(=O)O)C(=O)O` [L-glutamate], the “coupled FbiD:FbiA:FbiB assay, LC-MS” value [7] is reported as “Mtb-FbiB was observed to catalyze the addition of L-glutamate residues to dehydro-F420-0”.
